According to patent US7252992B2, “Cell line and uses thereof” (Abbott Laboratories, priority 2003, dated 2007):

What was measured:
[1] = biological target: T1, melanin concentrating hormone receptor (MCHR) (Homo sapiens, UniProt Q99705); assay: Ca++-mobilization assay using I3.4.2 cells (FLIPR); assay type: cell-based; conditions: for inhibition of MCH-stimulated intracellular Ca++-flux: T42402I3.4.2 cell line, FIG. 3
T1 construct: endogenous in cells; host or cells: T42402I3.4.2 (I3.4.2) cells, ATCC PTA-5201, derived from IMR32 (ATCC CCL-127) by transfection of a Galpha16/Zeocin-resistance plasmid
T1 sequence (Q99705 whole entry): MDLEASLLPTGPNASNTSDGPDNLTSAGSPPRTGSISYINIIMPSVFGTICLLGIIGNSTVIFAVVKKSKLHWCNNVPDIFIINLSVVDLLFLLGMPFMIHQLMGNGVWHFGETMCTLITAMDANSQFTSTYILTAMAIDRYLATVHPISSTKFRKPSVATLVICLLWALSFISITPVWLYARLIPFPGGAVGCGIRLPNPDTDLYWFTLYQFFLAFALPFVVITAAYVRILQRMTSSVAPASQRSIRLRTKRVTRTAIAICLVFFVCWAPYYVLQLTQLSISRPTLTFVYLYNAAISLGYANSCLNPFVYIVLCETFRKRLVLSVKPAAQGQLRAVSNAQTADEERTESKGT
Experimental: The following day, Zeocin (Invitrogen, Carlsbad, Calif.) was added to a final concentration of 20 μg/ml. Cells were maintained in this medium with periodic replacement until discrete colonies were observed. Individual colonies were isolated and propagated until sufficiently large cell populations were obtained such that the cell samples could be cryopreserved.
This intracellular calcium release is measured using a fluorometeric imaging plate reader (FLIPR™, Molecular Devices Corp., Sunnyvale, Calif.) in conjunction with the Ca^++-sensitive dye reagent (Calcium Assay Reagent, Molecular Devices Corp., Sunnyvale, Calif.). Release of Ca^++ from intracellular stores causes an increase in fluorescence of the dye that is proportional to Ca^++ concentration. Thus, this method may be utillized to identify agonist-s, antagonists, and inverse agonists of MCHR1.
In particular, the assay is carried out as follows: The cells are cultured in MEM/10% fetal bovine serum/50 μg/mL gentamicin/200 μg/ml Zeocin. […] Calcium Assay Reagent fluorescence is measured at 488 nm, with an exposure of 0.40 sec. and F-stop=2.0 and the laser set at 0.20-0.40 W constant light output.

MCHR1 [2] = biological target: T2, MCHR1 (Homo sapiens, UniProt Q99705); conditions: literature (Takekawa et al. 2002; Borowsky et al. 2002); cited from earlier work
T2 sequence (Q99705 whole entry, species assumed): as the sequence (Q99705 whole entry) above

MCHR1 [3] = biological target: T2, MCHR1; conditions: literature (Takekawa et al. 2002; Borowsky et al. 2002); cited from earlier work; remark: listed apart in the source

Row | Compound | MCH-induced response (fluorescence) ([1]; MCH 1 μM, baseline approximately 700 RFU) | inhibition of activation of intracellular signaling by MCH (MCHR1 [2]) | inhibition of MCH-stimulated intracellular Ca++-flux [1] | inhibition of binding of 125I-labeled MCH to MCHR1 (MCHR1 [3])
1 | CSCC[C@@H]1NC(=O)[C@@H](NC(=O)[C@H](CCCNC(=N)N)NC(=O)[C@H](CC(C)C)NC(=O)[C@H](CCSC)NC(=O)[C@H](CC(=O)O)NC(=O)[C@H](Cc2ccccc2)NC(=O)[C@@H](N)CC(=O)O)CSSC[C@@H](C(=O)N[C@@H](Cc2c[nH]c3ccccc23)C(=O)N[C@@H](CCC(N)=O)C(=O)N[C@H](C(=O)O)C(C)C)NC(=O)[C@@H]2CCCN2C(=O)[C@H](CCCNC(=N)N)NC(=O)[C@H](Cc2ccc(O)cc2)NC(=O)[C@H](C(C)C)NC(=O)[C@H](CCCNC(=N)N)NC(=O)CNC(=O)[C@H](CC(C)C)NC1=O [MCH, melanin-concentrating hormone] | 5,000-6,000 relative fluorescence units (RFU) | – | – | –
2 | COCC1=C(C(=O)OC)[C@H](c2ccc(F)c(F)c2)N(C(=O)NCCCN2CCC(c3cccc(NC(C)=O)c3)CC2)C(=O)N1 [SNAP-7941] | – | inhibit | inhibited | inhibit binding
3 | CN(C)CC1CCc2cc(NC(=O)c3ccc(-c4ccc(F)cc4)cc3)ccc2C1 (stereo not shown) [T-226296] | – | inhibit | inhibited | inhibit binding
